# From publication PMC9147171, “Pharmacokinetic/Pharmacodynamic Evaluation of a New Purine-2,6-Dione Derivative in Rodents with Experimental Autoimmune Diseases” (Pharmaceutics, 2022)
# Legend:
# hrPDE3A = molecular target: T1, hrPDE3A (Homo sapiens, UniProt Q14432); experiment: PDE-Glo catalytic activity assay, PDE3A; type: biochemical
# T1 construct: purchased SignalChem, Richmond, Canada
# Protocol: The inhibitory activity of compound 34 against hrPDE1B and hrPDE3A (SignalChem, Richmond, Canada) was assessed using the PDE-Glo™ catalytic activity assay (Promega Corporation, Madison, WI, USA). It was performed on 384-well plates according to manufacturer’s instructions with slight modifications. Solutions of both PDEs were prepared by diluting their stock solutions in the PDE-Glo™ Reaction Buffer and aliquots of 6.5 μL were added to the wells. A stock solution of the tested compound was prepared in DMSO at a concentration of 10 mM and serially diluted with the same solvent. The obtained solutions were further diluted with PDE-Glo™ Reaction Buffer (1:5, v/v) and aliquots of 1 μL were transferred to the respective wells. Then, the mixture was incubated for 10 min at 30 °C on a heated plate shaker (Grant Instruments, Cambridge, United Kingdom). The reaction was started by the addition of 2.5 μL of a 0.2 μM cAMP solution to each well and the plate was incubated for 10 min at 30 °C on a heated plate shaker. Moreover, for each series, respective control reactions were performed: no-substrate, no-enzyme negative control reactions; no-enzyme positive control reactions containing substrate; and no-inhibitor positive control reactions containing both the substrate and PDE. After incubation, the reaction was stopped by adding 2.5 μL of the PDE-Glo™ Termination Buffer. A volume of 2.5 μL of the PDE-Glo™ Detection Buffer was transferred to each well and the plate was incubated for 20 min at room temperature. Finally, an aliquot of 10 μL of the PDE-Glo Kinase® Reagent was added to the wells. The plate was incubated for 10 min at room temperature and luminescence was measured with a luminometer (BMG Labtech, Ortenberg, Germany). For each inhibitor concentration, four independent measurements were performed. The resulting data were expressed as percent of an uninhibited control and plotted against the inhibitor concentration. The IC50 values were estimated by nonlinear regression using ADAPT5 software (BMSR, Los Angeles, CA, USA).
# [1] = test system: MOG35–55-induced EAE in mice; experiment: MOG35-55-induced experimental autoimmune encephalomyelitis (EAE) in mice, PK/PD EAE progression model; type: in vivo, female C57BL/6 mice
# Protocol: Female C57BL/6 mice were immunized by subcutaneous injection of MOG35–55 peptide emulsified in complete Freund’s adjuvant and IP administration of pertussis toxin solution in PBS (Hooke Laboratories, Inc., Lawrence, MA, USA). Mice developed EAE 8–14 days after immunization and on day 14 they were randomly divided into two groups. The study group (n = 6) was administered with compound 34 solution at an IP dose of 50 mg·kg^−1 once daily for 15 days, whereas the control group (n = 6) received vehicle alone. To follow the progress of the disease, clinical score (CS) (scale 0–5), including “in-between” scores (i.e., 0.5, 1.5, 2.5, 3.5, and 4.5), and body weight of mice were evaluated according to the protocol provided by Hooke Laboratories, Inc.. Using the Mann–Whitney U test, it was verified that there is no significant difference in CS between the groups on the day of randomization. […]
# The model assumes that some time is required for the compound to distribute from the serum to the site of action before it interacts with a biological target and exerts the pharmacological effect. […] The progression of disease, which was measured by CS, is stimulated by the sum of the signals from 20th and 38th transit compartments that allows us to capture the onset of the disease, the temporary remission, and the relapse of the disease that is a characteristic feature of this animal model of MS [30]. […]
# PDE4B = experiment: PDE inhibition assay, PDE4B (previous investigations); type: biochemical; conditions: ratio of IC50 values, vs GRMS-55
# PDE7A = experiment: PDE inhibition assay, PDE7A (previous investigations); type: biochemical; conditions: ratio of IC50 values, vs GRMS-55
# T1 sequence (Q14432 whole entry): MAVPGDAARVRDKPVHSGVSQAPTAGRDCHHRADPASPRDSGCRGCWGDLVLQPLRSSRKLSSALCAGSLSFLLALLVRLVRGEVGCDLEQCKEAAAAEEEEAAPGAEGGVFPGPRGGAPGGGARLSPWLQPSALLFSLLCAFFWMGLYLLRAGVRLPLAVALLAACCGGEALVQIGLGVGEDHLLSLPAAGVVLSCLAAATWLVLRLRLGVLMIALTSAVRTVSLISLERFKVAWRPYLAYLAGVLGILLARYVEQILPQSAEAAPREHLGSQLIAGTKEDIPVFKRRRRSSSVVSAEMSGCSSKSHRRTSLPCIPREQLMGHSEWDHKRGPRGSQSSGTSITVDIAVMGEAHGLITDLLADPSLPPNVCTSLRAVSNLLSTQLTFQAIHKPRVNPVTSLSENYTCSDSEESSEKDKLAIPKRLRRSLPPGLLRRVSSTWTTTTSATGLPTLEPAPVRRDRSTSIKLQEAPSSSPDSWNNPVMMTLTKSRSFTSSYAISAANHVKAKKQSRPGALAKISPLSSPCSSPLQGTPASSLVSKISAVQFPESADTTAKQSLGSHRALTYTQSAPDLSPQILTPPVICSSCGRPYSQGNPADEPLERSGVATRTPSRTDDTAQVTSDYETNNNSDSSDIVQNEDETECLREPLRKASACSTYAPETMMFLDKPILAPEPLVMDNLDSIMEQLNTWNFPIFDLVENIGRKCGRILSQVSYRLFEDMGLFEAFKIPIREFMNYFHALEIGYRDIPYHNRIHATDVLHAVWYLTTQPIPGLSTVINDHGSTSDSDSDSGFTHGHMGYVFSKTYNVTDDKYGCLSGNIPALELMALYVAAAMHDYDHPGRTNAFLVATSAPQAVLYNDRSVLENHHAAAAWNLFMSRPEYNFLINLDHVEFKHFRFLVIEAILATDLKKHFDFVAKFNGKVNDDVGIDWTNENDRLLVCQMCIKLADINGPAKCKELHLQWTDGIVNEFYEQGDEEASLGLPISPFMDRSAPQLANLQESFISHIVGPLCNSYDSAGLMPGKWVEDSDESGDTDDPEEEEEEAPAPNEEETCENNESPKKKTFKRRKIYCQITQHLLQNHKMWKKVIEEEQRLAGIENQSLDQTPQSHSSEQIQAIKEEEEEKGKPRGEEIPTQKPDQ
compound,measurement,setting,value
"Cn1c(=O)c2c(nc(NCCc3ccccc3)n2CCCC(=O)NN=Cc2ccc(O)c(O)c2O)n(C)c1=O [Compound 34, 4-(1,3-dimethyl-2,6-dioxo-8-(phenethylamino)-2,3,6,7-tetrahydro-1H-purin-7-yl)-N′-(2,3,4-trihydroxybenzylidene)butanehydrazide]",IC50,"hrPDE3A; human recombinant PDE3A, CV% in brackets, read-out: IC50 (µM) Against PDE Isoform (CV%) PDE3A",0.78 µM
same,times more potent than GRMS-55 in inhibiting PDE3A,"hrPDE3A; ratio of IC50 values, vs GRMS-55",17 times
same,"inhibitory activity against PDE3A, times lower compared to milrinone","hrPDE3A; ratio of IC50 values, vs milrinone",about 4 times
same,"mean relative body weight, experimental vs control group",[1]; 50 mg·kg^−1 IP once daily for 15 days,not significantly different
same,IC50 at 50 mg/kg,"[1]; Mus musculus, ip, 50 mg·kg^−1 IP once daily for 15 days from day 14, clinical score, PK/PD model estimate, read-out: IC50_CS Compound 34 concentration resulting in 50% inhibition of disease progression, Estimate (CV%)",7 ng/mL
same,times more active as a PDE4B inhibitor compared to GRMS-55,PDE4B,19 times
same,times more potent as a PDE7A inhibitor compared to GRMS-55,PDE7A,about two
